In the supplement of paper PMC11451515:

Tested on: P12-Ichikawa
Test: cell viability relative to DMSO control; higher = less cytotoxic
Conditions: 48 h
How it was run: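 Cells were incubated for 48 h at 37°C before CellTiter-Glo One luminescence was read. The cells were NOMO1 or SEM (500 cells/well) or P12-Ichikawa (1000 cells/well) leukemia cells, adapted for at least four passages in each medium and seeded in 1536-well plates (5 μl). Dosing used library compounds in DMSO applied by pin over 11 threefold points, 47 μM to 0.79 nM. Viability is the per-plate percentage of DMSO wells, with cell-free wells as background.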

[1] = HPLM + 10% dialyzed FBS, 0.000781 µM
[2] = HPLM + 10% dialyzed FBS, 0.00234 µM
[3] = HPLM + 10% dialyzed FBS, 0.00702 µM
[4] = HPLM + 10% dialyzed FBS, 0.0211 µM
[5] = HPLM + 10% dialyzed FBS, 0.0632 µM
[6] = HPLM + 10% dialyzed FBS, 0.19 µM
[7] = HPLM + 10% dialyzed FBS, 0.569 µM
[8] = HPLM + 10% dialyzed FBS, 1.71 µM
[9] = HPLM + 10% dialyzed FBS, 5.12 µM
[10] = HPLM + 10% dialyzed FBS, 15.4 µM
[11] = HPLM + 10% dialyzed FBS, 46.1 µM
[12] = RPMI 5 mM glucose + 10% FBS, 0.000781 µM
[13] = RPMI 5 mM glucose + 10% FBS, 0.00234 µM
[14] = RPMI 5 mM glucose + 10% FBS, 0.00702 µM
[15] = RPMI 5 mM glucose + 10% FBS, 0.0211 µM
[16] = RPMI 5 mM glucose + 10% FBS, 0.0632 µM
[17] = RPMI 5 mM glucose + 10% FBS, 0.19 µM
[18] = RPMI 5 mM glucose + 10% FBS, 0.569 µM
[19] = RPMI 5 mM glucose + 10% FBS, 1.71 µM
[20] = RPMI 5 mM glucose + 10% FBS, 5.12 µM
[21] = RPMI 5 mM glucose + 10% FBS, 15.4 µM
[22] = RPMI 5 mM glucose + 10% FBS, 46.1 µM
[23] = RPMI 5 mM glucose + 10% dialyzed FBS, 0.000781 µM
[24] = RPMI 5 mM glucose + 10% dialyzed FBS, 0.00234 µM
[25] = RPMI 5 mM glucose + 10% dialyzed FBS, 0.00702 µM
[26] = RPMI 5 mM glucose + 10% dialyzed FBS, 0.0211 µM
[27] = RPMI 5 mM glucose + 10% dialyzed FBS, 0.0632 µM
[28] = RPMI 5 mM glucose + 10% dialyzed FBS, 0.19 µM
[29] = RPMI 5 mM glucose + 10% dialyzed FBS, 0.569 µM
[30] = RPMI 5 mM glucose + 10% dialyzed FBS, 1.71 µM
[31] = RPMI 5 mM glucose + 10% dialyzed FBS, 5.12 µM
[32] = RPMI 5 mM glucose + 10% dialyzed FBS, 15.4 µM
[33] = RPMI 5 mM glucose + 10% dialyzed FBS, 46.1 µM

Structure (SMILES)	cell viability [1]	cell viability [2]	cell viability [3]	cell viability [4]	cell viability [5]	cell viability [6]	cell viability [7]	cell viability [8]	cell viability [9]	cell viability [10]	cell viability [11]	cell viability [12]	cell viability [13]	cell viability [14]	cell viability [15]	cell viability [16]	cell viability [17]	cell viability [18]	cell viability [19]	cell viability [20]	cell viability [21]	cell viability [22]	cell viability [23]	cell viability [24]	cell viability [25]	cell viability [26]	cell viability [27]	cell viability [28]	cell viability [29]	cell viability [30]	cell viability [31]	cell viability [32]	cell viability [33]
CC(C)OC(=O)C(C(=O)OC(C)C)=C1S\C=C/S1	138%	124%	122%	133%	113%	124%	123%	124%	126%	118%	101%																						
CC(C)CNc1ccnc(NCc2csc(-c3ccccc3)n2)n1	110%	123%	128%	132%	130%	132%	127%	115%	101%	96.3%	63.6%																						
S=C(NCc1ccc2c(c1)OCO2)N1CCN(c2ncnc3c2oc2ccccc23)CC1	115%	111%	114%	106%	111%	102%	105%	95.6%	69.5%	65.2%	33.2%	105%	106%	108%	103%	111%	102%	96.2%	74.1%	52.7%	54%	29.6%	114%	110%	115%	106%	107%	108%	99%	77.8%	60.4%	64.6%	35.3%
O=C(C=CC#Cc1cccc(N[S+](=O)([O-])c2ccccc2)c1)NO	110%	113%	118%	116%	119%	114%	103%	92.7%	3.67%	3.02%	3%	113%	119%	116%	123%	117%	116%	122%	75.6%	6.32%	3.14%	2.9%	113%	114%	117%	121%	117%	117%	113%	80.4%	3.83%	2.6%	2.95%
Cc1c(C)n(Cc2ccc(-c3ccccc3C(=O)O)cc2)c2ccc(C(=O)N[C@@H](C)c3ccc([N+](=O)[O-])cc3)cc12	103%	105%	102%	107%	103%	109%	109%	120%	114%	25.8%	33.6%	101%	104%	102%	96.8%	112%	110%	114%	102%	113%	25.2%	25.1%	99.6%	97.5%	106%	105%	106%	101%	113%	108%	114%	25.5%	20%
Cc1nn(Cc2ccccc2Cl)c(C)c1CN(C)CC(O)COc1ccc(Cl)cc1 (stereo not given)	110%	101%	105%	104%	108%	108%	102%	97.4%	104%	95.1%	59.6%	93.9%	94.5%	93%	108%	97%	101%	94.5%	91.5%	92.1%	83.7%	42.8%	94%	98.3%	95.2%	95.7%	98.2%	92.6%	94.9%	92.1%	89.4%	89.1%	39.6%
FC1=C(C=C(C\C2=N\NC(=O)C3=C2C=CC=C3)C=C1)C(=O)N4CCN(CC4)C(=O)C5CC5	81.1%	90.8%	94%	96.2%	99%	87.4%	95.6%	85.7%	85.5%	88.3%	49.4%	81.6%	84.1%	86.7%	88.2%	88.7%	86.5%	86.1%	82.5%	83.8%	72.1%	38.9%	78.9%	87.3%	86.5%	87.1%	91.2%	93.2%	82%	82.1%	78.9%	73%	53.9%
CNC(=O)c1ccc2cc(C3(O)CCn4cncc43)ccc2c1 (stereo not given)	123%	127%	115%	115%	119%	123%	102%	102%	108%	108%	114%	123%	127%	119%	127%	131%	125%	129%	122%	111%	133%	110%	126%	117%	121%	125%	118%	120%	110%	117%	107%	118%	105%
CNc1nc(Nc2ccc(C(=O)N3CCOCC3)cc2OC)ncc1Cl												120%	116%	122%	119%	120%	115%	113%	107%	108%	108%	101%	123%	115%	121%	116%	123%	125%	116%	124%	112%	109%	104%
CC(C)c1noc(N2CCC(COc3ccc(-c4ccc([S+](C)(=O)[O-])cc4)nc3)CC2)n1	117%	117%	113%	120%	122%	114%	112%	106%	103%	98.7%	103%	118%	120%	119%	112%	119%	109%	110%	118%	111%	113%	101%	117%	105%	120%	108%	114%	110%	106%	110%	100%	112%	97.4%
OC[C@H]1O[C@H]([C@H](O)[C@@H]1O)N2\C=C/C(=O)NC2=O	108%	103%	99.1%	111%	101%	104%	109%	103%	99.4%	110%	99.6%	104%	109%	103%	103%	97.6%	104%	117%	95.3%	107%	96%	90.8%	101%	89.1%	95.9%	101%	102%	98.3%	109%	97.1%	96%	89.5%	92.4%
CC(C)(C)OC(=O)N[C@H]1CCCCC/C=C\[C@@H]2C[C@@]2(C(=O)N[S+](=O)([O-])C2CC2)NC(=O)[C@@H]2C[C@@H](OC(=O)N3Cc4cccc(F)c4C3)CN2C1=O	108%	114%	108%	109%	112%	114%	115%	111%	108%	104%	87.1%	110%	108%	110%	108%	114%	112%	125%	114%	113%	104%	82.1%	95.2%	104%	117%	94.3%	105%	104%	112%	106%	94.2%	89.3%	80.5%
Clc1ccc(-c2nc3sccn3c2/C=N/OCc2ccc(Cl)c(Cl)c2)cc1	114%	109%	107%	112%	108%	103%	104%	106%	101%	99.9%	98%	111%	113%	118%	102%	113%	108%	110%	110%	98.5%	96.5%	98.9%	114%	110%	101%	110%	110%	100%	102%	101%	91.3%	101%	102%
C[C@@]12C(=O)OC(=O)[C@@]1(C)C1CCC2O1	106%	103%	106%	112%	111%	108%	109%	92.2%	90%	13.2%	12.4%	110%	102%	102%	109%	106%	98.9%	103%	102%	92.3%	8.07%	6.24%	104%	111%	109%	104%	105%	109%	105%	97.5%	93.3%	10.6%	7.9%
CC[C@H](NC1=C2N=C[NH]C2=NC=N1)C/3=N/C4=C(C(=CC=C4)F)C(=O)N3C5=CC=CC=C5	125%	118%	122%	131%	133%	120%	115%	118%	101%	88.9%	56.3%	114%	115%	118%	120%	128%	104%	86.6%	94.7%	78.2%	61.9%	50.2%	124%	123%	125%	132%	131%	115%	99.7%	98.7%	91.7%	70.7%	51.9%
O=C(Nc1cc(Cl)cc2c1[nH]c1cnccc12)c1cccnc1	116%	121%	123%	121%	121%	122%	127%	115%	121%	113%	106%	124%	118%	118%	129%	119%	116%	117%	118%	114%	114%	109%											
O=C(O)Cn1nnc(-c2cc(N3CCC(Oc4cc(F)ccc4Br)CC3)no2)n1	97.6%	114%	107%	114%	116%	123%	105%	112%	113%	12%	11%	103%	112%	109%	118%	118%	122%	112%	118%	112%	18%	13.4%	93.2%	117%	111%	115%	118%	116%	113%	116%	114%	45.6%	17.9%
